Results published in patent publication US20260167656A1, “PHOSPHORAMIDATE COMPOUNDS AND USES THEREOF” (ALLORION THERAPEUTICS INC, priority 2022, published 2026).

What was measured:
[1] = system: non-small cell lung cancer cell line H460; assay: In vitro human cancer cell line cytotoxicity (proliferation) assay in H460, CellTiter-Glo, 72 hours; assay type: cell-based; details: DMSO condition (no AKR1C3 inhibitor), read-out: CTG H460: Avg IC50 (nM) [Assay Condition: DMSO]
Procedure, shortened: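 IC50s in nM come from CellTiter-Glo viability read after 72 h of compound exposure. Compounds went in from 10 mM DMSO stocks onto H460 cells, which had been plated at 3×10^3 per well and grown 24 h beforehand at 37 °C, 5% CO2.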

[2] = system: non-small cell lung cancer cell line H460; assay: H460 proliferation assay in the presence of 3 uM ASP9521 (AKR1C3 specific inhibitor); assay type: cell-based, human; details: H460 cells, CellTiter-Glo, 72 hours, in the presence of 3 uM ASP9521 added 4 hours prior to compounds; read-out: CTG H460: Avg IC50 (nM) [Assay Condition: ASP9521]
Procedure, shortened: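 AKR1C3 blocked with 3 uM ASP9521 given 4 h ahead of test compounds. H460 cells, plated 24 h earlier, were then treated for 72 h at 37 °C in 5% CO2. CellTiter-Glo luminescence gave viability.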

[3] = Homo sapiens, NCI-H460, 72 h, H460 cells
[4] = Homo sapiens, NCI-H460, H460 cells

Structure (SMILES)	IC50 [1, 3] [nM]	IC50 [2] [nM]	IC50 [1, 4] [nM]	IC50 ([1]; H460 cells) [nM]
Cn1c(=O)oc2ccc(Oc3c([N+](=O)[O-])ccc4c3CCC4OP(=O)(N3CC3)N3CC3)cc21 (centres unmarked) [Example 378]	< 10	440		
O=C1c2ccc(Oc3c([N+](=O)[O-])ccc4c3CC[C@@H]4OP(=O)(N3CC3)N3CC3)cc2CN1C1CC1 [Example 379]	< 10	447		
Cn1c(=O)oc2ccc(Oc3c([N+](=O)[O-])ccc4c3CC[C@@H]4OP(=O)(N3CC3)N3CC3)cc21 [Example 380]	< 10	722		
Cn1ccc2cc(Oc3c([N+](=O)[O-])ccc4c3CCC4OP(=O)(N3CC3)N3CC3)ccc2c1=O (centres unmarked) [Example 381]	< 10	312		
Cn1ccc2cc(Oc3c([N+](=O)[O-])ccc4c3CC[C@@H]4OP(=O)(N3CC3)N3CC3)ccc2c1=O [Example 382]	< 10	320		
O=[N+]([O-])c1ccc2c(c1Oc1ccc3nccn3c1)CC[C@H]2OP(=O)(N1CC1)N1CC1 [Example 383]	10 to 50	4240		
Cn1ccc2cc(Oc3c([N+](=O)[O-])ccc4c3CCC4OP(=O)(N3CC3)N3CC3)ccc21 (centres unmarked) [Example 384]	< 10	1490		
O=[N+]([O-])c1ccc2c(c1Oc1ccc3c(c1)OC(F)(F)O3)CC[C@@H]2OP(=O)(N1CC1)N1CC1 [Example 385]	< 10	819		
Cn1ccc2cc(Oc3c([N+](=O)[O-])ccc4c3CC[C@H]4OP(=O)(N3CC3)N3CC3)ccc21 [Example 386]	< 10	1410		
Cc1cc2cc(Oc3c([N+](=O)[O-])ccc4c3CCC4OP(=O)(N3CC3)N3CC3)ccc2n1C (centres unmarked) [Example 387]	< 10	1860		
Cc1nc2cc(Oc3c([N+](=O)[O-])ccc4c3CCC4OP(=O)(N3CC3)N3CC3)ccc2n1C (centres unmarked) [Example 388]	< 10	1430		
Cn1cnc2cc(Oc3c([N+](=O)[O-])ccc4c3CCC4OP(=O)(N3CC3)N3CC3)ccc21 (centres unmarked) [Example 390]		1410	< 10	
Cc1cc2cc(Oc3c([N+](=O)[O-])ccc4c3CC[C@H]4OP(=O)(N3CC3)N3CC3)ccc2n1C [Example 391]	< 10	1810		
Cc1nc2cc(Oc3c([N+](=O)[O-])ccc4c3CC[C@H]4OP(=O)(N3CC3)N3CC3)ccc2n1C [Example 392]	< 10	785		
O=[N+]([O-])c1ccc2c(c1Oc1ccc3c(c1)OCO3)CC[C@@H]2OP(=O)(N1CC1)N1CC1 [Example 394]	< 10	388		
Cn1cnc2cc(Oc3c([N+](=O)[O-])ccc4c3CC[C@@H]4OP(=O)(N3CC3)N3CC3)ccc21 [Example 396]		2480	10 to 50	
Cn1cnc2cc(Oc3c([N+](=O)[O-])ccc4c3CC[C@H]4OP(=O)(N3CC3)N3CC3)ccc21 [Example 397]		956	< 10	
Cn1cc2ccc(Oc3c([N+](=O)[O-])ccc4c3CC[C@@H]4OP(=O)(N3CC3)N3CC3)cc2n1 [Example 399]		1110		< 10
O=[N+]([O-])c1ccc2c(c1Oc1ccc3ncccc3c1)CC[C@@H]2OP(=O)(N1CC1)N1CC1 [Example 400]	< 10	452		
Cn1ccc2cc(F)c(Oc3c([N+](=O)[O-])ccc4c3CCC4OP(=O)(N3CC3)N3CC3)cc21 (centres unmarked) [Example 402]		712		< 10
O=C1CCCCN1c1cccc(Oc2c([N+](=O)[O-])ccc3c2CCC3OP(=O)(N2CC2)N2CC2)c1 (centres unmarked) [Example 410]		4660		10 to 50
CC1(C)CN(c2cccc(Oc3c([N+](=O)[O-])ccc4c3CCC4OP(=O)(N3CC3)N3CC3)c2)C(=O)O1 (centres unmarked) [Example 417]		712		< 10
O=[N+]([O-])c1ccc2c(c1Oc1ccc(F)c(-n3cc(F)cn3)c1)CC[C@H]2OP(=O)(N1CC1)N1CC1 [Example 420]	< 10	675		
O=[N+]([O-])c1ccc2c(c1Oc1ccc(F)c(-n3cc(F)cn3)c1)CC[C@@H]2OP(=O)(N1CC1)N1CC1 [Example 421]	< 10	1400		
O=[N+]([O-])c1ccc2c(c1Oc1ccc(-n3cc(F)cn3)cc1)CCC2OP(=O)(N1CC1)N1CC1 (centres unmarked) [Example 422]		821		< 10
O=[N+]([O-])c1ccc2c(c1Oc1ccc(-n3cccn3)cc1)CCC2OP(=O)(N1CC1)N1CC1 (centres unmarked) [Example 424]		779		< 10

Structure (SMILES)	IC50 [1, 3] [nM]	IC50 [2] [nM]	IC50 [1, 4] [nM]	IC50 ([1]; H460 cells) [nM]
Cc1cnn(-c2ccc(Oc3c([N+](=O)[O-])ccc4c3CCC4OP(=O)(N3CC3)N3CC3)cc2)c1 (centres unmarked) [Example 425]		5270		< 10
CC1(C)CN(c2ccc(Oc3c([N+](=O)[O-])ccc4c3CCC4OP(=O)(N3CC3)N3CC3)cc2)C(=O)O1 (centres unmarked) [Example 426]		638		< 10
O=C1CCCN1c1cc(Oc2c([N+](=O)[O-])ccc3c2CCC3OP(=O)(N2CC2)N2CC2)ccc1F (centres unmarked) [Example 427]		756		< 10
O=C1CCCN1c1cc(Oc2c([N+](=O)[O-])ccc3c2CC[C@H]3OP(=O)(N2CC2)N2CC2)ccc1F [Example 428]		1200		< 10
Cc1cnn(-c2cccc(Oc3c([N+](=O)[O-])ccc4c3CC[C@@H]4OP(=O)(N3CC3)N3CC3)c2)c1 [Example 429]	< 10	1960		
Cc1ccn(-c2cccc(Oc3c([N+](=O)[O-])ccc4c3CC[C@H]4OP(=O)(N3CC3)N3CC3)c2)n1 [Example 430]	< 10	4860		
O=[N+]([O-])c1ccc2c(c1Oc1ccc(F)c(OCC(F)(F)F)c1)CC[C@H]2OP(=O)(N1CC1)N1CC1 [Example 431]	< 10	238		
O=[N+]([O-])c1ccc2c(c1Oc1cccc(-n3cc(C(F)F)cn3)c1)CC[C@@H]2OP(=O)(N1CC1)N1CC1 [Example 432]	< 10	4170		
Cc1ccnn1-c1cc(Oc2c([N+](=O)[O-])ccc3c2CC[C@@H]3OP(=O)(N2CC2)N2CC2)ccc1F [Example 433]	< 10	2590		
Cc1nncn1-c1cccc(Oc2c([N+](=O)[O-])ccc3c2CC[C@@H]3OP(=O)(N2CC2)N2CC2)c1 [Example 434]	< 10	1140		
O=[N+]([O-])c1ccc2c(c1Oc1cccc(-n3cncn3)c1)CC[C@@H]2OP(=O)(N1CC1)N1CC1 [Example 435]	< 10	482		
O=[N+]([O-])c1ccc2c(c1Oc1cccc(-n3ncnn3)c1)CC[C@@H]2OP(=O)(N1CC1)N1CC1 [Example 436]	< 10	138		
O=[N+]([O-])c1ccc2c(c1Oc1cccc(-n3ncnn3)c1)CC[C@H]2OP(=O)(N1CC1)N1CC1 [Example 437]	< 10	235		
O=[N+]([O-])c1ccc2c(c1Oc1ccc(F)c(-n3cncn3)c1)CC[C@@H]2OP(=O)(N1CC1)N1CC1 [Example 438]	< 10	416		
Cc1ccn(-c2cc(Oc3c([N+](=O)[O-])ccc4c3CC[C@@H]4OP(=O)(N3CC3)N3CC3)ccc2F)n1 [Example 439]	< 10	2090		
Cc1ncn(-c2cc(Oc3c([N+](=O)[O-])ccc4c3CC[C@@H]4OP(=O)(N3CC3)N3CC3)ccc2F)n1 [Example 440]	< 10	897		
O=[N+]([O-])c1ccc2c(c1Oc1ccc(F)c(-n3ncnn3)c1)CC[C@@H]2OP(=O)(N1CC1)N1CC1 [Example 441]	< 10	158		
O=[N+]([O-])c1ccc2c(c1Oc1ccc(F)c(-n3ccc(F)n3)c1)CC[C@@H]2OP(=O)(N1CC1)N1CC1 [Example 442]	< 10	667		
O=[N+]([O-])c1ccc2c(c1Oc1ccc(F)c(-n3ccc(F)n3)c1)CC[C@H]2OP(=O)(N1CC1)N1CC1 [Example 443]	< 10	571		
O=[N+]([O-])c1ccc2c(c1Oc1cccc(-n3ccc(F)n3)c1)CC[C@@H]2OP(=O)(N1CC1)N1CC1 [Example 444]	< 10	192		
O=[N+]([O-])c1ccc2c(c1Oc1cccc(-n3ccc(F)n3)c1)CC[C@H]2OP(=O)(N1CC1)N1CC1 [Example 445]	< 10	357		
O=[N+]([O-])c1ccc2c(c1Oc1cc(O)cc(OCC3CC3)c1)CC[C@@H]2OP(=O)(N1CC1)N1CC1 [Example 446, (S)-4-(3-(cyclopropylmethoxy)-5-hydroxyphenoxy)-5-nitro-2,3-dihydro-1H-inden-1-yl di(aziridin-1-yl)phosphinate]	< 10	1210		
COc1cccc(Oc2c([N+](=O)[O-])ccc3c2CC[C@H]3OP(=O)(N2CC2)N2CC2)c1 [Example 448]		647		< 10
O=[N+]([O-])c1ccc2c(c1Oc1cccc(OC(F)(F)F)c1)CC[C@@H]2OP(=O)(N1CC1)N1CC1 [Example 449]		570		< 10
O=[N+]([O-])c1ccc2c(c1Oc1cccc(OC(F)(F)F)c1)CC[C@H]2OP(=O)(N1CC1)N1CC1 [Example 450]		1060		< 10
CC(C)Oc1cccc(Oc2c([N+](=O)[O-])ccc3c2CC[C@@H]3OP(=O)(N2CC2)N2CC2)c1 [Example 452]		2240		< 10
